Assay results from patent US10501493B2, “Broad spectrum antibiotics” (priority 2011, dated 2019).
In brackets after ≈: the same amount, converted by molar mass.

Experiments:
S. aurues NCTC-8325 = test: In vitro antimicrobial activity, MIC by broth micro-dilution; type: cell-based, S. aureus; conditions: Staphylococcus aureus, NCTC8325, read-out: MIC class, S. aurues NCTC-8325
Method: (§1) In vitro antimicrobial activity of each compound was determined by measuring minimal inhibitor concentrations (MICs) using the broth micro-dilution technique as approved by the Clinical and Laboratory Standards Institute (CLSI). The microbiological panel examined contains a number of bacterial species including E. coli MG1655, P. aeruginosa, S. aureus, and S. epidermidis. In addition, the panel includes previously described pseudo-isogenic strains of these four species (P. A. Smith et al. Chem Biol 2010, 1223-1231), in which a specific proline residue in SPase (called LepB in Gram-negative organisms an SpsB in Gram-positive organisms) has been mutated to a different amino acid. The resulting strains have increased susceptibility to the arylomycin class of antibiotics. Analysis of the strains lacking this proline residue will increases the dynamic range of the assay, and comparison of the sensitivities of the isogenic pairs provides ongoing confirmation that the activity gained through derivatization is specific to the inhibition of SPase. Briefly, bacterial streaks were grown on Mueller Hinton Agar II (Difco™) with or without 5% lysed horse blood for a period of 24 hours at either 35° C. or 28° C. Bacterial colonies were suspended in cation adjusted Mueller Hinton broth and diluted to a final concentration of 1*10^7 colony forming units/ml. Two-fold serial dilutions of each compound were arrayed into 96-well plates (100 μl final volume per well) and 5 ul of the bacterial suspension will be added. […] MICs were periodically checked plating serial dilutions of MIC wells and quantitatively determining viable colonies.

S. pneumoniae D39 = test: as above; type: cell-based; conditions: Streptococcus pneumoniae, D39; read-out: MIC class, S. pneumoniae D39
Method: as §1

[1] = tested on: S. aureus NCTC-8325 SpsB(P295); test: as above; type: cell-based; conditions: Staphylococcus aureus, NCTC8325, read-out: MIC class, S. aureus NCTC-8325 SpsB(P295)
Method: as §1

E. coli ATCC 25922 = test: as above; type: cell-based; conditions: Escherichia coli, ATCC25922; read-out: MIC class, E. coli ATCC 25922
Method: as §1

S. epidermidis RP62A = test: as above; type: cell-based; conditions: Staphylococcus epidermidis, RP62A; read-out: MIC class, S. epidermidis RP62A
Method: as §1

[2] = tested on: E. col ATCC 25922 LepB(P84L); test: as above; type: cell-based, E. coli; conditions: Escherichia coli, ATCC25922, read-out: MIC class, E. col ATCC 25922 LepB(P84L)
Method: as §1

E. coli SPase = biological target: T1, E. coli SPase (Escherichia coli, UniProt P00803); test: Enzymatic fluorogenic substrate cleavage assay for IC50; type: biochemical
T1 construct: Full length His-tagged E. coli SPase proteins were expressed in E. coli BL21(DE3); His-tag; made in house; host or cells: E. coli BL21(DE3)
Method: (§2) Full length His-tagged E. coli SPase proteins were expressed in E. coli BL21(DE3) containing the plasmid pET23-lepB, P. A. Smith et al. Chem Biol 2010, 1223-1231. Briefly, saturated overnight cultures grown in 20 ml of Luria-Bertani medium supplemented with ampicillin were subcultures into 1.5 L of Luria-Bertani, and shaken at 37° C. until an optical density at 600 nm of 0.4-0.5 was achieved. Protein expression was induced with Isopropyl β-D-1-thiogalactopyranoside (ITPG) at a final concentration of […], and purified using nickel affinity chromatography. Full length His-tagged S. aureus SPase protein was expressed similarly from E. coli BL21(DE3) containing the plasmid pCDF1-SaSpsB or pCDF1-SaSpsB(P29S) and purified similarly to the E. coli protein with the following exceptions. SPase protein was solubilized using 300 mM NaCl, 20 mM Tris pH 8.06, 5 mM Imidazole, 10% glycerol, 1% Triton X-100, prior to purification in Ni-NTA Superflow resin and resin bound protein was washed in a similar buffer containing 1% Elugent in place of Triton X-100 prior to protein eluted in wash buffer supplemented with 300 mM imidazole. Protein purify was judged to exceed 95% by visual inspection of SDS-PAGE followed by Comassie staining. All protein concentrations were determined by BCA assay.
(§3) In addition to the equilibrium binding assays, compound activity is also characterized by measuring inhibition of E. coli and S. aureus substrate cleavage reactions using fluorogenic peptides developed at RQx Pharmaceuticals. Briefly, two fluorogenic peptide substrates (decanoyl-LSSPA Y^NO2 A ? ADK^abzPD (SEQ ID NO: 1) and decanyol-LTPTAY^NO2 A ? ASKK^abzDD (SEQ ID NO: 2)) have been synthesized, where abz is the fluorescence donor 2-aminobenzamide, YNO2 is the fluorescence acceptor 3-nitrotyrosine, and the cleavage site is indicated with an arrow. These substrates are processed with a second order rate constant (Kcat/KM) of 10^5 M^−1s^−1 for E. coli and S. aureus SPase enzymes, and cleavage results in a greater than 10-fold increase in fluorescence signal (excitation at 314 nm, emission at 416 nm) as measured using a SpectraMax M2 fluorescence microplate reader. Two-folder serial dilutions of compound are prepared in cleavage reaction buffer consisting of: 50 mM Tris-HCl pH 8.0, 100 mM NaCl, 10% glycerol, 1 mM EDTA, detergent (1% NP-40 or 0.1% Elugent™ for E. coli LepB or S. aureus SpsB respectively) and either 2.5 nM of E. coli SPase enzyme or 10 nM of S. aureus SPase enzyme. 40 μl aliquots of the compound dilution series in the protein/buffer solution is transferred to black 384-well polypropylene plates, and 10 μl of fluorogenic peptide at a concentration of 100 μM is added to initiate the reaction. The increase in fluorescence, corresponding to substrate cleavage, is monitored continuously at room temperature for 30 minutes and initial reaction rates are calculated based in the linear increase in fluorescence from the initial 30 minutes of the reaction. Reaction rates are plotted as a function of compound concentration, and IC50 values are determined nonlinear regression analysis (SoftMax® Pro v5.4) of the sigmoidal dose-response curve.

S. aureus SPase = biological target: T2, S. aureus SPase (Staphylococcus aureus, UniProt P0A070); test: as above; type: biochemical
T2 construct: Full length His-tagged S. aureus SPase protein was expressed similarly; His-tag; made in house; host or cells: E. coli BL21(DE3)
Method: as §2, §3

Compound | MIC (S. aurues NCTC-8325) | MIC (S. pneumoniae D39) | MIC [1] | MIC (E. coli ATCC 25922) | MIC (S. epidermidis RP62A) | MIC [2] | IC50 (E. coli SPase) | IC50 (S. aureus SPase)
CCCCCCCCCCCCCCCC(=O)N(C)[C@H](CO)C(=O)N[C@H](C)C(=O)NCC(=O)N(C)[C@@H]1C(=O)N[C@@H](C)C(=O)N[C@H](C(=O)NCCOC)Cc2ccc(O)c(c2)-c2cc1ccc2O [Compound 61] | > 64 mg/L | < 8 mg/L | > 64 mg/L | > 64 mg/L | > 64 mg/L | 16 to 64 mg/L (≈ 17.1 to 68.2 µM) | 1 to 10 µM | > 10 µM
CCCCCCCCCCCCCCCC(=O)N(C)C(CO)C(=O)N[C@H](C)C(=O)NCC(=O)N(C)[C@@H]1C(=O)N[C@@H](C)C(=O)NC(C(=O)NCC(O)CO)Cc2ccc(O)c(c2)-c2cc1ccc2O (stereo partly shown) [Compound 62] | > 64 mg/L | 16 to 64 mg/L (≈ 16.8 to 67.1 µM) | > 64 mg/L | > 64 mg/L | > 64 mg/L | 16 to 64 mg/L (≈ 16.8 to 67.1 µM) | 1 to 10 µM | > 10 µM
CCCCCCCCCCCCCCCC(=O)N(C)[C@H](CO)C(=O)N[C@H](C)C(=O)NCC(=O)N(C)[C@@H]1C(=O)N[C@@H](C)C(=O)N[C@H](C(=O)N[C@H](C)CO)Cc2ccc(O)c(c2)-c2cc1ccc2O [Compound 63] | > 64 mg/L | 16 to 64 mg/L (≈ 17.1 to 68.2 µM) | > 64 mg/L | > 64 mg/L | 16 to 64 mg/L (≈ 17.1 to 68.2 µM) | > 64 mg/L | > 10 µM | > 10 µM
CCCCCCCCCCCCCCCC(=O)N(C)[C@H](CO)C(=O)N[C@H](C)C(=O)NCC(=O)N(C)[C@@H]1C(=O)N[C@@H](C)C(=O)N[C@H](C(=O)NC[C@H](C)O)Cc2ccc(O)c(c2)-c2cc1ccc2O [Compound 64] | > 64 mg/L | < 8 mg/L | > 64 mg/L | > 64 mg/L | < 8 mg/L | 16 to 64 mg/L (≈ 17.1 to 68.2 µM) | 1 to 10 µM | > 10 µM
CCCCCCCCCCCCCCCC(=O)N(C)[C@H](CO)C(=O)N[C@H](C)C(=O)NCC(=O)N(C)[C@@H]1C(=O)N[C@@H](C)C(=O)N[C@H](C(=O)NC[C@@H](C)O)Cc2ccc(O)c(c2)-c2cc1ccc2O [Compound 65] | > 64 mg/L | 16 to 64 mg/L (≈ 17.1 to 68.2 µM) | > 64 mg/L | > 64 mg/L | < 8 mg/L | 16 to 64 mg/L (≈ 17.1 to 68.2 µM) | < 1 µM | 1 to 10 µM
CCCCCCCCCCCCCCCC(=O)N(C)[C@H](CO)C(=O)N[C@H](C)C(=O)NCC(=O)N(C)[C@@H]1C(=O)N[C@@H](C)C(=O)N[C@H](C(=O)N[C@@H](CO)C(C)C)Cc2ccc(O)c(c2)-c2cc1ccc2O [Compound 66] | > 64 mg/L | 16 to 64 mg/L (≈ 16.6 to 66.2 µM) | > 64 mg/L | > 64 mg/L | 16 to 64 mg/L (≈ 16.6 to 66.2 µM) | 16 to 64 mg/L (≈ 16.6 to 66.2 µM) | 1 to 10 µM | > 10 µM
CCCCCCCCCCCCCCCC(=O)N(C)[C@H](CO)C(=O)N[C@H](C)C(=O)NCC(=O)N(C)[C@@H]1C(=O)N[C@@H](C)C(=O)N[C@H](C(=O)NC(CO)CO)Cc2ccc(O)c(c2)-c2cc1ccc2O [Compound 67] | > 64 mg/L | 16 to 64 mg/L (≈ 16.8 to 67.1 µM) | > 64 mg/L | > 64 mg/L | 16 to 64 mg/L (≈ 16.8 to 67.1 µM) | 16 to 64 mg/L (≈ 16.8 to 67.1 µM) | > 10 µM | > 10 µM
CCCCCCCCCCCCCCCC(=O)N(C)[C@H](CO)C(=O)N[C@H](C)C(=O)NCC(=O)N(C)[C@@H]1C(=O)N[C@@H](C)C(=O)N[C@H](C(=O)N[C@H](CO)C(C)O)Cc2ccc(O)c(c2)-c2cc1ccc2O (stereo partly shown) [Compound 68] | > 64 mg/L | 16 to 64 mg/L (≈ 16.5 to 66.1 µM) | > 64 mg/L | > 64 mg/L | 16 to 64 mg/L (≈ 16.5 to 66.1 µM) | 16 to 64 mg/L (≈ 16.5 to 66.1 µM) | 1 to 10 µM | > 10 µM
CCCCCCCCCCCCCCCC(=O)N(C)[C@H](CO)C(=O)N[C@H](C)C(=O)NCC(=O)N(C)[C@@H]1C(=O)N[C@@H](C)C(=O)N[C@H](C(=O)N[C@H](CO)CCC)Cc2ccc(O)c(c2)-c2cc1ccc2O [Compound 69] | > 64 mg/L | 16 to 64 mg/L (≈ 16.6 to 66.2 µM) | > 64 mg/L | > 64 mg/L | 16 to 64 mg/L (≈ 16.6 to 66.2 µM) | < 8 mg/L | 1 to 10 µM | > 10 µM
CCCCCCCCCCCCCCCC(=O)N(C)[C@H](CO)C(=O)N[C@H](C)C(=O)NCC(=O)N(C)[C@@H]1C(=O)N[C@@H](C)C(=O)N[C@H](C(=O)NC(CO)(CO)CO)Cc2ccc(O)c(c2)-c2cc1ccc2O [Compound 70] | > 64 mg/L | 16 to 64 mg/L (≈ 16.3 to 65 µM) | > 64 mg/L | > 64 mg/L | < 8 mg/L | < 8 mg/L | < 1 µM | > 10 µM
CCCCCCCCCCCCCCCC(=O)N(C)[C@H](CO)C(=O)N[C@H](C)C(=O)NCC(=O)N(C)[C@@H]1C(=O)N[C@@H](C)C(=O)N[C@H](C(=O)N[C@H](CO)Cc2cnc[nH]2)Cc2ccc(O)c(c2)-c2cc1ccc2O [Compound 71] | > 64 mg/L | 16 to 64 mg/L (≈ 15.9 to 63.7 µM) | > 64 mg/L | > 64 mg/L | > 64 mg/L | > 64 mg/L | > 10 µM | > 10 µM
CCCCCCCCCCCCCCNC(=O)N(C)[C@H](CO)C(=O)N[C@H](C)C(=O)NCC(=O)N(C)[C@@H]1C(=O)N[C@@H](C)C(=O)N[C@H](C(=O)O)Cc2ccc(O)c(c2)-c2cc1ccc2O [Compound 72] | > 64 mg/L | 16 to 64 mg/L (≈ 18.1 to 72.6 µM) | 16 to 64 mg/L (≈ 18.1 to 72.6 µM) | > 64 mg/L | < 8 mg/L | < 8 mg/L | < 1 µM | < 1 µM
CCCCCCCCCCCCCCCC(=O)N(C)[C@H](CO)C(=O)N[C@H](C)C(=O)NCC(=O)N(C)[C@@H]1C(=O)N[C@@H](C)C(=O)N[C@H](C(=O)N[C@H](CO)Cc2c[nH]c3ccccc23)Cc2ccc(O)c(c2)-c2cc1ccc2O [Compound 74] | > 64 mg/L | 16 to 64 mg/L (≈ 15.2 to 60.8 µM) | > 64 mg/L | > 64 mg/L | > 64 mg/L | > 64 mg/L | 1 to 10 µM | > 10 µM
CCCCCCCCCCCCCCCC(=O)N(C)[C@H](CO)C(=O)N[C@H](C)C(=O)NCC(=O)N(C)[C@@H]1C(=O)N[C@@H](C)C(=O)N[C@H](C(=O)NCC(O)C(=O)OC)Cc2ccc(O)c(c2)-c2cc1ccc2O (stereo partly shown) [Compound 75] | > 64 mg/L | < 8 mg/L | > 64 mg/L | > 64 mg/L | < 8 mg/L | < 8 mg/L | < 1 µM | > 10 µM
